According to patent publication US8927730B2, “Intramolecular hydrogen-bonded nitric oxide synthase inhibitors” (Northwestern University, priority 2010, dated 2015):

Columns and labels:
[1] = target: rat nNOS (Rattus norvegicus (Rat), UniProt P29476); assay: In vitro purified enzyme assay (hemoglobin capture), nNOS; format: biochemical; settings: for IC50: purified enzyme assay; for Ki: calculated from directly measured IC50 (Cheng-Prusoff), rat nNOS
Method: (§1) The three NOS isoforms, rat nNOS, murine iNOS and bovine eNOS were recombinant enzymes overexpressed in E. coli and purified as reported in the literature. (See, e.g., example 51 of the aforementioned incorporated '790 patent and the references cited therein.) The hemoglobin capture was used to measure nitric oxide production. (See, Hevel, J. M. and Marietta, M. A. Nitric Oxide Synthase Assays. Methods Enzymol. 1994, 133, 250-258.) Briefly, the assay was run at 37° C. in 100 mM HEPES buffer (10% glycerol; pH 7.4) in the presence of 10 μM L-arginine. The following NOS cofactors were also included in the assay: 100 μM NADPH, 10 μM tetrahydrobiopterin, 1 mM CaCl2, 11.6 μg/mL calmodulin and 3.0 μM oxyhemoglobin. For iNOS, calmodulin and CaCl2 were omitted. The assay was run in a high throughput manner, using the Synergry 4 by BioTek, at the Northwestern University HighThroughput Analysis Facility. The assay was run in triplicate; 48 100 uL reactions were ran at once in a 96 well plate. The addition of hemoglobin and NOS were automated with a maximum of a 30 second delay before the reactions could be recorded at 401 nm. The absorbance increase at 401 nm is due to the formation of NO via the conversion of oxyhemoglobin to methemoglobin.
(§2) The IC50 values were obtained using non-linear regression in GraphPad Prism5 software.

[2] = target: HEK293t cells stably transfected with rat nNOS (Rattus norvegicus (Rat), UniProt P29476); assay: nNOS cell-based assay (nitrite production, Griess reagent); settings: for Relationship (fold higher in cells): cell-based IC50 versus in vitro IC50; for IC50: inhibition of nitric oxide production in HEK293t cells stably expressing nNOS
Method: HEK293t cells stably transfected with rat nNOS were cultured as previously described, and the nNOS inhibition assay was performed as previously reported (Fang, J.; Silverman, R. B. A cellular model for screening neuronal nitric oxide synthase inhibitors. Analytical Biochemistry 2009, 390, 74-78), with the following modifications: assays were performed in 96-well plates with a total volume of 100 μL, and 10 μM A23187 (Sigma Aldrich, St Louis, Mo., USA) in 50% DMSO was used in place of 5 μM. Nine concentrations of each inhibitor were tested, in at least triplicate wells. All inhibitors were assayed within the same experiment to assure consistencies in cell concentration and passage number. The entire assay was repeated at least twice for each inhibitor, and the IC50 values averaged. After 6 hours of activation (in the presence or absence of inhibitor, which was added 30 minutes before activation) 50 μL aliquots of the media were removed and nitrite production was quantified using Griess reagent. (See, Hevel, J. M.; White, K. A.; Marietta, M. Purification of the inducible murine macrophage nitric oxide synthase. Identification as a flavoprotein. J. Biol. Chem. 1991, 266, 22789-22791.)

[3] = cited from earlier work
[4] = animal test results; cited from earlier work
[5] = target: bovine eNOS (Bos taurus (Bovine), UniProt P29473); assay: In vitro purified enzyme assay (hemoglobin capture), eNOS; format: biochemical; settings: for Ki: calculated from directly measured IC50 (Cheng-Prusoff), bovine eNOS; for selectivity n/e: ratio of Ki (eNOS) to Ki (nNOS)
Method: as §1, §2

[6] = target: murine iNOS (Mus musculus (Mouse), UniProt P29477); assay: In vitro purified enzyme assay (hemoglobin capture), iNOS; format: biochemical; settings: for Ki: calculated from directly measured IC50 (Cheng-Prusoff), murine iNOS; for selectivity n/i: ratio of Ki (iNOS) to Ki (nNOS)
Method: as §1, §2

CNc1cc(N)nc(NC)c1.Cl [Aminopyridine, 2-amino-4,6-dimethylaminopyridine hydrochloride, reference compound]
IC50 [1]: 0.05 µM | Relationship (fold higher in cells) [2]: 500x | pKa [3]: ~7

C=CCO[C@@H]1CN(C(=O)OC(C)(C)C)C[C@@H]1Cc1cc(C)cc(N(C(=O)OC(C)(C)C)C(=O)OC(C)(C)C)n1 [Compound 1, reference compound]
IC50 [1]: 0.45 µM | Relationship (fold higher in cells) [2]: 722 x | IC50 [2]: 325 µM | BBB penetration [4]: do not penetrate the BBB

Cc1cc(N)nc(C[C@H]2CNC[C@H]2OCCNCc2ccccc2O)c1 [Compound 3c, 2-((2-((3S,4S)-4-((6-Amino-4-methylpyridin-2-yl)methyl)pyrrolidin-3-yloxy)ethylamino)methyl)phenol]
Ki [1]: 0.39 µM | IC50 [1]: 3.5 µM | Ki [5]: 37 µM | selectivity n/e [5]: 93 | Ki [6]: 57 µM | selectivity n/i [6]: 143 | Relationship (fold higher in cells) [2]: 150 x | IC50 [2]: 520 µM

COc1ccccc1CNCCO[C@@H]1CNC[C@@H]1Cc1cc(C)cc(N)n1 [Compound 3b, 6-(((3S,4S)-4-(2-(2-Methoxybenzylamino)ethoxy)pyrrolidin-3-yl)methyl)-4-methylpyridin-2-amine]
Ki [1]: 0.82 µM | IC50 [1]: 7.1 µM | Ki [5]: 77 µM | selectivity n/e [5]: 93 | Ki [6]: 114 µM | selectivity n/i [6]: 139 | Relationship (fold higher in cells) [2]: 27 x | IC50 [2]: 190 µM

Cc1cc(C[C@H]2CN(C(=O)OC(C)(C)C)C[C@H]2OCC=O)nc(N(C(=O)OC(C)(C)C)C(=O)OC(C)(C)C)c1 [Compound 2, reference compound]
IC50 [1]: 1 µM | Relationship (fold higher in cells) [2]: 125 x | IC50 [2]: 125 µM | BBB penetration [4]: do not penetrate the BBB

Cc1cc(N)nc(C[C@H]2CNC[C@H]2OCCNCc2ccco2)c1 [Compound 3d, 6-(((3S,4S)-4-(2-(Furan-2-ylmethylamino)ethoxy)pyrrolidin-3-yl)methyl)-4-methylpyridin-2-amine]
Ki [1]: 0.4 µM | IC50 [1]: 3.4 µM | Ki [5]: 66 µM | selectivity n/e [5]: 169 | Ki [6]: 36 µM | selectivity n/i [6]: 92 | Relationship (fold higher in cells) [2]: 123 x | IC50 [2]: 420 µM

Cc1cc(N)nc(C[C@H]2CNC[C@H]2OCCNCc2ccccc2F)c1 [Compound 3a, 6-(((3S,4S)-4-(2-(2-Fluorobenzylamino)ethoxy)pyrrolidin-3-yl)methyl)-4-methylpyridin-2-amine]
Ki [1]: 0.41 µM | IC50 [1]: 3.6 µM | Ki [5]: 40 µM | selectivity n/e [5]: 98 | Ki [6]: 44 µM | selectivity n/i [6]: 105 | Relationship (fold higher in cells) [2]: 33 x | IC50 [2]: 120 µM
